{
  "source": "patent US11339169B2",
  "about": "“P2X3 and/or P2X2/3 compounds and methods” (Asana BioSciences, LLC, priority 2016, dated 2022)",
  "key": {"hP2X3": {"target": "T1, hP2X3 (Homo sapiens, UniProt P56373)", "T1 construct": "host or cells: HEK (hP2X3-HEK)", "T1 sequence (P56373 1-397)": "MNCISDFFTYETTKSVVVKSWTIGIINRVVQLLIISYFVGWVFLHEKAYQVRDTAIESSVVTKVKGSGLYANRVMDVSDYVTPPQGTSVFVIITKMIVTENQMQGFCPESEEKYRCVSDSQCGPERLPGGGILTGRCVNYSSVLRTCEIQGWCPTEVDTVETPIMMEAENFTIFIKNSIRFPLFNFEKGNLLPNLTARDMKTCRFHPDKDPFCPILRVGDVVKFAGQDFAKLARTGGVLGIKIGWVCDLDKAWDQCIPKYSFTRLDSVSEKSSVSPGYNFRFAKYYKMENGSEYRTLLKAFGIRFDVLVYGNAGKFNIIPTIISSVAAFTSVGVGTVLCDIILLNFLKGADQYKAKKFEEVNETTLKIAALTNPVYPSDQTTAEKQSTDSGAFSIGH", "experiment": "FLIPR intracellular calcium assay, hP2X3", "format": "cell-based", "details": "human P2X3-HEK cells, agonist at EC75", "from_the_text": "(§1) The FLIPR® assay utilizes cells which express human or rat P2X3 or P2X2/3 receptors. Recombinant cells expressing hP2X3 (Cat #6188) and hP2X2/3 (Cat #6179) were procured from Chantest Corp. Rat P2X2 (NCBI Accession No: U14414) was amplified by PCR from PC12 cDNA (a rat adrenal medulla cell line). The PCR product obtained containing the protein coding sequence of rat P2X2 was cloned into EcoRV-digested and dephosphorylated vector plRES-puro3 within the multiple cloning site (MCS). See, FIG. 1A.\n(§2) (i) Intracellular Calcium Assay Protocol for Screening Compounds\n(§3) Cryo-vial containing 6×10^6 cells (human P2X3-HEK/human P2X2/3-TRex293/rat P2X2/3-TRex293/rat P2X3 TRex-CHO) was thawed in a 37° C. water bath. Cells were suspended in 20 mL of respective cell plating media (See annexure for composition) in a 50 mL centrifuge tube. The cell viability was checked with the help of Trypan Blue dye. Upon washing, cells were plated in a black 384-well clear bottomed, sterile poly-D-lysine coated plate such that, each well contained 10,000 cells (15,000/well for hP2X3) in 30 μL cell plating media. The plate was incubated in a 5% CO2 incubator at 37° C. for 24 h.\n(§4) The next day, prior to the assay, the cell plating media was removed from each well by decanting and gentle tapping. Thirty μL of FLIPR Calcium 4 dye solution was added to each well. The plate was incubated at 37° C. for 45 min (60 min for hP2X3). The plate was next equilibrated at room temperature for 15 minutes before placing it in a 384 well FLIPR for the assay.\n(§5) Compounds were dissolved in DMSO and serially diluted following 11 point half log (3.16 fold) dilution with a starting concentration of 2 mM. Dilutions were mixed with assay buffer just before performing the assay.\n(§6) Compounds were added to the respective wells of the assay-ready cell plate with the help of the FLIPR and fluorescence readings were captured for 5 min to observe any possible agonistic property of the compounds. The plate was then incubated at room temperature for 15 min. The cells were stimulated with respective agonist EC75 concentration and the fluorescence readings were captured for another 5 min by FLIPR. The difference in fluorescence readings in presence of the compounds were compared with that of the control wells (wells having no compound) to calculate the inhibitory potency of the compounds. The IC50 values of the compounds were determined using the Graph pad Prism software.\n(§7) (ii) Cell Plating Media for hP2X3-HEK and hP2X2/3-TRex293 Cells • DMEM/F12 (1:1) HAM media (Invitrogen; Cat #11039) • 1×NEAA (Invitrogen; Cat #11140) • 25 mM HEPES (Invitrogen; Cat #15630) • 1 mM sodium pyruvate (Invitrogen; Cat #11360) • 10% tetracycline negative FBS (PAA; Cat #A15-209) • 1 μg/mL doxycycline (Clontech; Cat #63131) [for hP2X2/3-TRex293 cells only]\n(§8) (v) Assay Buffer Composition • HBSS (Invitrogen Cat #14025) • 20 mM HEPES (Invitrogen Cat #15630) • 0.01% F127 (Sigma Cat #P2443) • 1.8 mM CaCl2 (Sigma Cat #C5080) • pH adjusted to 7.4\n(§9) (vi) Dye Solution Composition • 1× FLIPR Calcium 4 dye in assay buffer (Molecular devices Cat #R8141) • 1.8 mM Probenecid (Sigma Cat #P8761) • pH adjusted to 7.4"}, "hP2X2/3": {"target": "T2, hP2X2/3 (Homo sapiens, UniProt P56373+Q9UBL9)", "T2 construct": "host or cells: TRex293 (hP2X2/3-TRex293), doxycycline-induced", "T2 sequence (P56373 1-397)": "T1 sequence (P56373 1-397)", "T2 sequence (Q9UBL9 1-471)": "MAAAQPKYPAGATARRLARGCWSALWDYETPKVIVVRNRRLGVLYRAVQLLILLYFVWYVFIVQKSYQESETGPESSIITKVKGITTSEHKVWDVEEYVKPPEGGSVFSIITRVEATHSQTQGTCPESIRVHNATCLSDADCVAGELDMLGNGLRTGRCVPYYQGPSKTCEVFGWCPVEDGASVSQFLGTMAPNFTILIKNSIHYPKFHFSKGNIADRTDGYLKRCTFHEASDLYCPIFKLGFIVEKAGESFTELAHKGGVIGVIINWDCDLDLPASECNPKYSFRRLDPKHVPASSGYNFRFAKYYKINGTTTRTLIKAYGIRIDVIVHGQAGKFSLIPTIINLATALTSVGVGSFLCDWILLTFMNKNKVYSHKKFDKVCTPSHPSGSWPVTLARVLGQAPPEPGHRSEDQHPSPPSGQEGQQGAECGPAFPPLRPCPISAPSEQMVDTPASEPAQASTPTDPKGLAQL", "experiment": "FLIPR intracellular calcium assay, hP2X2/3", "format": "cell-based", "details": "human P2X2/3-TRex293 cells, agonist at EC75", "from_the_text": "as §1, §2, §3, §4, §5, §6, §7, §8, §9"}},
  "note": "Where “and” joins values, the source holds several entries; their conditions need not be identical. Equal entries are not always repeated.",
  "data": [
    {"smiles": "CCC(C)n1ncc2nc(N3CCC(C(N)=O)CC3)nc(N[C@@H](c3cnc4ccccc4c3)C3CC3)c21", "note": "(stereo partly shown) [Example 75]", "values": [
      {"measurement": "IC50", "setting": "hP2X3", "result": "1 to 100", "unit": "nM"},
      {"measurement": "IC50", "setting": "hP2X2/3", "result": "1000 to 10000", "unit": "nM"}
    ]},
    {"smiles": "CCC(C)n1ncc2nc(N3CCOC(C#N)C3)nc(N[C@@H](c3cnc4ccccc4c3)C3CC3)c21", "note": "(stereo partly shown) [Example 76]", "values": [
      {"measurement": "IC50", "setting": "hP2X3", "result": "100 to 1000", "unit": "nM"},
      {"measurement": "IC50", "setting": "hP2X2/3", "result": "1000 to 10000", "unit": "nM"}
    ]},
    {"smiles": "CCC(C)n1ncc2nc(-n3cncn3)nc(N[C@@H](c3cnc4ccccc4c3)C3CC3)c21", "note": "(stereo partly shown) [Example 77]", "values": [
      {"measurement": "IC50", "setting": "hP2X3", "result": "1 to 100 nM and 100 to 1000 nM"},
      {"measurement": "IC50", "setting": "hP2X2/3", "result": "1000 to 10000", "unit": "nM"}
    ]},
    {"smiles": "CC[C@H](C)n1ncc2nc(N3CCN(C(N)=O)CC3)nc(NC(c3ccc4c(cnn4CC)c3)C3CC3)c21", "note": "(stereo partly shown) [Example 80]", "values": [
      {"measurement": "IC50", "setting": "hP2X3", "result": "1 to 100", "unit": "nM"},
      {"measurement": "IC50", "setting": "hP2X2/3", "result": "1000 to 10000", "unit": "nM"}
    ]},
    {"smiles": "CC[C@H](C)n1ncc2nc(N3CCN(C(C)=O)CC3)nc(NC(CO)c3cnc4ccccc4c3)c21", "note": "(stereo partly shown) [Example 81]", "values": [
      {"measurement": "IC50", "setting": "hP2X3", "result": "1 to 100", "unit": "nM"},
      {"measurement": "IC50", "setting": "hP2X2/3", "result": "100 to 1000", "unit": "nM"}
    ]},
    {"smiles": "CC[C@H](C)n1ncc2nc(N3CCN(C(C)=O)CC3)nc(NC(COC)c3cnc4ccccc4c3)c21", "note": "(stereo partly shown) [Example 82]", "values": [
      {"measurement": "IC50", "setting": "hP2X3", "result": "1 to 100", "unit": "nM"},
      {"measurement": "IC50", "setting": "hP2X2/3", "result": "1000 to 10000", "unit": "nM"}
    ]},
    {"smiles": "CC[C@H](C)n1ncc2nc(N3CCN(C(N)=O)CC3)nc(NC(c3cnc4ccccc4n3)C3CC3)c21", "note": "(stereo partly shown) [Example 83]", "values": [
      {"measurement": "IC50", "setting": "hP2X3", "result": "1 to 100", "unit": "nM"},
      {"measurement": "IC50", "setting": "hP2X2/3", "result": "1000 to 10000", "unit": "nM"}
    ]},
    {"smiles": "CCC(C)n1ncc2nc(N3CCN(C(N)=O)CC3)nc(N[C@H](C)c3cn4ccc(C)cc4n3)c21", "note": "(stereo partly shown) [Example 84]", "values": [
      {"measurement": "IC50", "setting": "hP2X3", "result": "1 to 100", "unit": "nM"},
      {"measurement": "IC50", "setting": "hP2X2/3", "result": "1000 to 10000", "unit": "nM"}
    ]},
    {"smiles": "CCC(C)n1ncc2nc(N3CCN(C(N)=O)CC3)nc(N[C@H](C)c3cnc4ccccc4c3)c21", "note": "(stereo partly shown) [Example 85]", "values": [
      {"measurement": "IC50", "setting": "hP2X3", "result": "1 to 100", "unit": "nM"},
      {"measurement": "IC50", "setting": "hP2X2/3", "result": "100 to 1000", "unit": "nM"}
    ]},
    {"smiles": "CC(C1CC1)n1ncc2nc(N3CCN(C(N)=O)CC3)nc(N[C@@H](c3cnc4ccccc4c3)C3CC3)c21", "note": "(stereo partly shown) [Example 86]", "values": [
      {"measurement": "IC50", "setting": "hP2X3", "result": "1 to 100", "unit": "nM"},
      {"measurement": "IC50", "setting": "hP2X2/3", "result": "1 to 100", "unit": "nM"}
    ]},
    {"smiles": "CCC(C)n1ncc2nc(N3CCN(C(C)=O)CC3)nc(N[C@H](C)c3cnc4ccccc4c3)c21", "note": "(stereo partly drawn) [Example 89, 1-{4-[1-sec-Butyl-7-((R)-1-quinolin-3-yl-ethylamino)-1H-pyrazolo[4,3-d]pyrimidin-5-yl]-piperazin-1-yl}-ethanone]", "values": [
      {"measurement": "IC50", "setting": "hP2X3", "result": "1 to 100", "unit": "nM"},
      {"measurement": "IC50", "setting": "hP2X2/3", "result": "100 to 1000", "unit": "nM"}
    ]},
    {"smiles": "CCC(C)n1nc(Br)c2nc(N3CCN(C(C)=O)CC3)nc(N[C@H](C)c3cnc4ccccc4c3)c21", "note": "(stereo partly drawn) [Example 90, 1-{4-[3-Bromo-1-sec-butyl-7-((R)-1-quinolin-3-yl-ethylamino)-1H-pyrazolo[4,3-d]pyrimidin-5-yl]-piperazin-1-yl}-ethanone]", "values": [
      {"measurement": "IC50", "setting": "hP2X3", "result": "1 to 100", "unit": "nM"},
      {"measurement": "IC50", "setting": "hP2X2/3", "result": "1000 to 10000", "unit": "nM"}
    ]},
    {"smiles": "CCC(C)n1nc(C#N)c2nc(N3CCN(C(C)=O)CC3)nc(N[C@H](C)c3cnc4ccccc4c3)c21", "note": "(stereo partly drawn) [Example 91, 5-(4-Acetyl-piperazin-1-yl)-1-sec-butyl-7-((R)-1-quinolin-3-yl-ethylamino)-1H-pyrazolo[4,3-d]pyrimidine-3-carbonitrile]", "values": [
      {"measurement": "IC50", "setting": "hP2X3", "result": "1 to 100", "unit": "nM"},
      {"measurement": "IC50", "setting": "hP2X2/3", "result": "1000 to 10000", "unit": "nM"}
    ]},
    {"smiles": "CCC(C)n1nc(C2CC2)c2nc(N3CCN(C(C)=O)CC3)nc(N[C@H](C)c3cnc4ccccc4c3)c21", "note": "(stereo partly drawn) [Example 93, 1-{4-[1-sec-Butyl-3-cyclopropyl-7-((R)-1-quinolin-3-yl-ethylamino)-1H-pyrazolo[4,3-d]pyrimidin-5-yl]-piperazin-1-yl}-ethanone]", "values": [
      {"measurement": "IC50", "setting": "hP2X3", "result": "1 to 100", "unit": "nM"},
      {"measurement": "IC50", "setting": "hP2X2/3", "result": "1000 to 10000", "unit": "nM"}
    ]}
  ]
}
